Structures can show the parent of a compound that is named as a salt.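 Cultured in 96-well plates, cells were exposed to test compound for 48 hours across five concentrations. Here, GI50 denotes the concentration required for 50% inhibition of growth.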 Active and inactive are the calls of the source. Rule as the data show it: active = GI50 up to about 1.1 µM and inactive = higher.

Consider eleven molecules from ChEMBL document CHEMBL1201862, “PubChem BioAssay data set” (2004).

Among the test systems are HOP-92; SK-MEL-28; NCI-H226; CCRF-CEM; RXF 393; A498; SW-620; SF-268; UACC-62; M14; OVCAR-4; SNB-19; HCT-15; DU-145; MDA-MB-231; NCI-H460; NCI-H23; UACC-257; K562; SK-MEL-2.
Common to all, as to test: inhibition of tumour cell growth, NCI panel, 48 h

As for `COc1cc(C(CN)N(C)C)cc(OC)c1OC` (configuration not stated), the GI50 was > 100 µM (inactive) in the test on HOP-92; > 100 µM (inactive) with SK-MEL-28; 29.6 µM (inactive) with NCI-H226; > 100 µM (inactive) with CCRF-CEM; > 100 µM (inactive) in the test with RXF 393; > 100 µM (inactive) with A498. The GI50 in the test with SW-620, in the test with SF-268, in the test with UACC-62, with M14, in the test on OVCAR-4 and in the test with SNB-19 was > 100 µM (inactive) each time. Besides, the GI50 with HCT-15 was over 100 µM; in the test on DU-145, > 100 µM (inactive); in the test on MDA-MB-231, > 100 µM (inactive); with NCI-H460, > 100 µM (inactive); with NCI-H23 it was > 100 µM (inactive); in the test with UACC-257, > 100 µM (inactive). In the test with K562, the GI50 is > 100 µM (inactive).
For `C#CCCOC(=O)CC1=C(C)/C(=C/c2ccc([S+](C)[O-])cc2)c2ccc(F)cc21` (configuration not stated), the GI50 is 12.6 µM (inactive) in the test with HOP-92; 15.7 µM (inactive) in the test with SK-MEL-2; 19 µM (inactive) in the test on NCI-H226; 15 µM (inactive) with CCRF-CEM; 21.4 µM (inactive) in the test with RXF 393; 10.6 µM (inactive) in the test on A498. For the same molecule, the GI50 with SW-620 is 14.3 µM (inactive); in the test with SF-268, 20.6 µM (inactive); in the test on UACC-62, 13.6 µM (inactive); in the test with M14, 16.2 µM (inactive); with OVCAR-4 it was 19.2 µM (inactive); in the test on SNB-19, 13.6 µM (inactive). Besides, the GI50 is 12.9 µM in the test with HCT-15; 17.2 µM (inactive) in the test on DU-145; 8.49 µM (inactive) with MDA-MB-231; 18 µM (inactive) in the test on NCI-H460; 22.2 µM (inactive) with NCI-H23; 15.7 µM (inactive) in the test on UACC-257. Moreover, the GI50 in the test with K562 was 13.2 µM (inactive).
With `CCOC(=O)c1c(SC(=O)c2ccc(C(C)(C)C)cc2)n(-c2ccccc2)c(=S)n(-c2ccccc2)c1=O`, the GI50 was > 100 µM (inactive) in the test on HOP-92; > 100 µM (inactive) in the test on SK-MEL-28; > 100 µM (inactive) in the test on NCI-H226; 29.7 µM (inactive) with CCRF-CEM; > 100 µM (inactive) in the test with RXF 393; > 100 µM (inactive) with A498. Besides, the GI50 in the test on SW-620, in the test on SF-268, in the test with UACC-62, in the test with M14, in the test with OVCAR-4 and in the test on SNB-19 was > 100 µM (inactive) throughout. The GI50 in the test on HCT-15 is over 100 µM; in the test with DU-145, > 100 µM (inactive); in the test with MDA-MB-231 it was > 100 µM (inactive); with NCI-H460, > 100 µM (inactive); in the test with NCI-H23, > 100 µM (inactive); in the test with UACC-257 it was > 100 µM (inactive). Moreover, the GI50 in the test with K562 was > 100 µM (inactive).
With `CN1C[C@H](C(=O)N[C@]2(C)O[C@@]3(O)[C@@H]4CCCN4C(=O)[C@H](Cc4ccccc4)N3C2=O)C=C2c3cccc4[nH]cc(c34)C[C@H]21` [ERGOTAMINE TARTRATE], the GI50 in the test with HOP-92 is 16.9 µM (inactive); with SK-MEL-28 it was 17.1 µM (inactive); with SK-MEL-2, 17.4 µM (inactive); in the test with NCI-H226, 30.3 µM (inactive); in the test on CCRF-CEM, 20 µM (inactive); with RXF 393, 18 µM (inactive). In addition, the GI50 in the test on A498 is 15 µM (inactive); in the test with SW-620 it was 23.4 µM (inactive); with SF-268, 13.2 µM (inactive); with UACC-62 it was 16 µM (inactive); in the test with M14, 22.3 µM (inactive); in the test with OVCAR-4, 20.7 µM (inactive). In addition, the GI50 in the test on SNB-19 is 35.1 µM (inactive); with HCT-15 it was 18.9 µM; with DU-145, 22.2 µM (inactive); with MDA-MB-231, 19.2 µM (inactive); in the test on NCI-H23, 21.5 µM (inactive); in the test on UACC-257, 13.9 µM (inactive). Further, in the test with K562, the GI50 was 25.4 µM (inactive).
For `CCn1c2nc(=O)n(CCCCCCCCSC(c3ccccc3)(c3ccccc3)c3ccccc3)c(=O)c-2nc2ccccc21`, the GI50 in the test on HOP-92 is 15.5 µM (inactive); with SK-MEL-28, 53.3 µM (inactive); in the test with SK-MEL-2, 8.41 µM (inactive); in the test on NCI-H226, > 100 µM (inactive); in the test on CCRF-CEM it was 1.43 µM (inactive); in the test on RXF 393, 11.3 µM (inactive). In addition, the GI50 is 37.8 µM (inactive) in the test on A498; 3.41 µM (inactive) with SW-620; 4.08 µM (inactive) with SF-268; 8.61 µM (inactive) with M14; 9.53 µM (inactive) in the test on OVCAR-4; 8.38 µM with HCT-15. The GI50 with DU-145 is 90.6 µM (inactive); with MDA-MB-231, 45.4 µM (inactive); with NCI-H460, 4.62 µM (inactive); with NCI-H23 it was 8.3 µM (inactive); in the test on UACC-257, 3.73 µM (inactive); with K562, 5.55 µM (inactive).
For `Cc1ccc2c(O)cc(-c3csc4ccccc34)nc2n1`, the GI50 was 0.321 µM (active) with HOP-92; 0.0139 µM (active) with SK-MEL-2; 0.0174 µM (active) with NCI-H226; < 0.01 µM (active) with CCRF-CEM; < 0.01 µM (active) in the test on RXF 393; < 0.01 µM (active) in the test on A498. Moreover, the GI50 in the test on SW-620 was < 0.01 µM (active); in the test on SF-268, 0.018 µM (active); in the test on UACC-62, < 0.0122 µM (active); in the test on M14, < 0.01 µM (active); with SNB-19, < 0.01 µM (active); with HCT-15, under 0.0151 µM. Also, the GI50 in the test on DU-145 is 0.0163 µM (active); with MDA-MB-231, 0.021 µM (active); in the test on NCI-H460, < 0.0161 µM (active); in the test with NCI-H23, 0.0274 µM (active); with K562, < 0.01 µM (active).
With `CN(/N=C\c1ccc2ccccc2c1)C1=NCCCCN1`, the GI50 in the test on HOP-92 is 0.124 µM (active); with SK-MEL-28, 15.2 µM (inactive); in the test with SK-MEL-2, 23.8 µM (inactive); in the test on NCI-H226 it was 35.3 µM (inactive); in the test with CCRF-CEM, 23.3 µM (inactive); with RXF 393, 12.5 µM (inactive). In addition, the GI50 is 21 µM (inactive) in the test with A498; 17.9 µM (inactive) with SW-620; 34.4 µM (inactive) in the test with SF-268; 27.2 µM (inactive) in the test with UACC-62; 30.2 µM (inactive) in the test on OVCAR-4; 30.6 µM in the test with HCT-15. Moreover, the GI50 in the test on DU-145 was 54.2 µM (inactive); with MDA-MB-231 it was 21.9 µM (inactive); in the test with NCI-H460, 17.2 µM (inactive); in the test on NCI-H23, 29.8 µM (inactive); in the test on UACC-257, 16.4 µM (inactive); with K562 it was 17.4 µM (inactive).
For `C/C(=N\NC(=S)N1CCC1)c1ccccn1`, the GI50 was 0.0443 µM (active) with HOP-92; 0.425 µM (active) with SK-MEL-28; 1.97 µM (inactive) with SK-MEL-2; 0.293 µM (active) in the test on NCI-H226; 0.01 µM (active) in the test on CCRF-CEM; 0.163 µM (active) with RXF 393. In addition, the GI50 with A498 is 0.446 µM (active); in the test with SW-620 it was < 0.0103 µM (active); in the test on SF-268 it was 0.824 µM (active); in the test with UACC-62, < 0.016 µM (active); with M14, 0.01 µM (active); with SNB-19, 0.261 µM (active). In addition, the GI50 with HCT-15 was under 0.0219 µM; in the test on DU-145, 0.891 µM (active); in the test with MDA-MB-231, 0.0155 µM (active); in the test with NCI-H460, < 0.0184 µM (active); with NCI-H23, 0.01 µM (active); in the test with UACC-257, < 0.0229 µM (active). Further, in the test on K562, the GI50 was 0.01 µM (active).
In the case of `C/C(=N\c1ccc(Cl)cc1)c1ccncc1`, the GI50 in the test with HOP-92 is > 100 µM (inactive); with SK-MEL-28, 5.14 µM (inactive); in the test with SK-MEL-2, > 100 µM (inactive); in the test with NCI-H226 it was > 100 µM (inactive); in the test on CCRF-CEM, 1.22 µM (inactive); in the test with RXF 393 it was > 100 µM (inactive). Besides, the GI50 in the test on A498 was 3.96 µM (inactive); in the test with SW-620 it was 2.72 µM (inactive); in the test on SF-268 it was 53.5 µM (inactive); with M14 it was > 100 µM (inactive); in the test on OVCAR-4, > 100 µM (inactive); with SNB-19 it was > 100 µM (inactive). Moreover, the GI50 in the test on HCT-15 is 0.36 µM; with DU-145, > 100 µM (inactive); in the test on MDA-MB-231, > 100 µM (inactive); with NCI-H460, > 100 µM (inactive); in the test with NCI-H23 it was 67.8 µM (inactive); in the test with UACC-257, 22.6 µM (inactive). In addition, the GI50 with K562 was > 100 µM (inactive).
Regarding `CC(=O)Oc1ccc(OC(Oc2ccccc2)c2ccccc2)cc1` (configuration not stated), the GI50 with HOP-92 is 19 µM (inactive); with SK-MEL-28, 26.2 µM (inactive); in the test on NCI-H226, 27 µM (inactive); in the test on CCRF-CEM, 27.5 µM (inactive); in the test on RXF 393 it was 26.1 µM (inactive); in the test on A498 it was 23.7 µM (inactive). The GI50 with SW-620 was 38.6 µM (inactive); in the test with SF-268, 33 µM (inactive); with UACC-62, 20.7 µM (inactive); in the test on M14 it was 17.5 µM (inactive); with OVCAR-4 it was 33.7 µM (inactive); in the test with SNB-19, 27.3 µM (inactive). For the same molecule, the GI50 with HCT-15 was 33.9 µM; in the test with DU-145 it was 36.9 µM (inactive); in the test on MDA-MB-231, 18.9 µM (inactive); in the test on NCI-H460, 21.6 µM (inactive); with NCI-H23 it was 17.7 µM (inactive); with UACC-257, 32.2 µM (inactive). The GI50 in the test with K562 was 51.4 µM (inactive).
Turning to `CCOC(=O)c1cn2c(ccc3sc4ccccc4c(=O)c32)n1`, the GI50 is 87.5 µM (inactive) in the test on HOP-92; > 100 µM (inactive) with SK-MEL-28; > 100 µM (inactive) in the test with NCI-H226; > 100 µM (inactive) in the test with CCRF-CEM; > 100 µM (inactive) with RXF 393; > 100 µM (inactive) in the test with A498. For the same molecule, the GI50 with SW-620 was > 100 µM (inactive); in the test on SF-268, > 100 µM (inactive); in the test with SNB-19 it was > 100 µM (inactive); in the test on HCT-15, over 100 µM; in the test with DU-145 it was > 100 µM (inactive); in the test on MDA-MB-231 it was > 100 µM (inactive). For the same molecule, the GI50 with NCI-H460, in the test on NCI-H23, with UACC-257 and with K562 was > 100 µM (inactive) throughout.
